{"source": "patent US11725011B2", "about": "“Bicyclic urea kinase inhibitors and uses thereof” (The Broad Institute, Inc., priority 2016, dated 2023)", "key": {"[1]": {"test": "qAC50 biological assay (Table 4)"}, "[2]": {"target": "ABL1 (M351T)-phosphorylated (Homo sapiens (Human), UniProt P00519, M351T)", "test": "KINOMEscan", "type": "binding", "conditions": "1 uM"}, "AKT3": {"target": "AKT3 (Homo sapiens (Human), UniProt Q9Y243)", "test": "KINOMEscan", "type": "binding", "conditions": "1 uM"}, "AMPK-alpha2": {"target": "AMPK-alpha2 (Homo sapiens (Human), UniProt P54646)", "sequence (P54646 whole entry)": "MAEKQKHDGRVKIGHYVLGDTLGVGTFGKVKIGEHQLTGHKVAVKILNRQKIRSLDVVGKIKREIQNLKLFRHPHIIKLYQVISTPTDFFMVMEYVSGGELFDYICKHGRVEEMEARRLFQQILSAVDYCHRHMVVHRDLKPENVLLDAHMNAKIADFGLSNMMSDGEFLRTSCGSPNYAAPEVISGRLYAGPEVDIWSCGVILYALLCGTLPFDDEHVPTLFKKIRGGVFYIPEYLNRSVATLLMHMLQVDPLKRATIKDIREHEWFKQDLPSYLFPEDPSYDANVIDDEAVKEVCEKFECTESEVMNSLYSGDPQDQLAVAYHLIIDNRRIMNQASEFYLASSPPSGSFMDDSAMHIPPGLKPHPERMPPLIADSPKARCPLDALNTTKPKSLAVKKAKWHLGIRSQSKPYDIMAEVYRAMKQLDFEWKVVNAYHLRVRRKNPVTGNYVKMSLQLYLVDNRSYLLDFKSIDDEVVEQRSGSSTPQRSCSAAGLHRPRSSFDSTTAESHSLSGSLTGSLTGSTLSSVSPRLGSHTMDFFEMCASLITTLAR", "test": "KINOMEscan", "type": "binding", "conditions": "1 uM"}, "AURKB": {"target": "AURKB (Homo sapiens (Human), UniProt Q96GD4)", "test": "KINOMEscan", "type": "binding", "conditions": "1 uM"}, "BMPR1A": {"target": "BMPR1A (Homo sapiens (Human), UniProt P36894)", "sequence (P36894 24-532)": "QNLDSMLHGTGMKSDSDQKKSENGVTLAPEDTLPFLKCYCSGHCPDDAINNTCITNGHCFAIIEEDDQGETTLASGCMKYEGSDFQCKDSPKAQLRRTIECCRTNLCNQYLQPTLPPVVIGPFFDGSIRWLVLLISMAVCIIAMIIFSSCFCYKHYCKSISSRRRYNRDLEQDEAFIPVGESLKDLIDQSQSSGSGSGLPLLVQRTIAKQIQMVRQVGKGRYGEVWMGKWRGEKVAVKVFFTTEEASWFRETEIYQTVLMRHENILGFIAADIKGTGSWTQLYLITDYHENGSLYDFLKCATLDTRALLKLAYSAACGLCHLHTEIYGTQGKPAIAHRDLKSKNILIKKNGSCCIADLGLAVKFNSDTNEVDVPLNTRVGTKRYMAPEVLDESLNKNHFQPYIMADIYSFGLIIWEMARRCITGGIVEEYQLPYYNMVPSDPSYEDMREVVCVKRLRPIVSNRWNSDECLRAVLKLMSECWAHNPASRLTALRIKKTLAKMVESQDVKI", "test": "KINOMEscan", "type": "binding", "conditions": "1 uM"}, "BRAF (V600E)": {"target": "BRAF (V600E) (Homo sapiens (Human), UniProt P15056, V600E)", "test": "KINOMEscan", "type": "binding", "conditions": "1 uM"}, "CAMK2G": {"target": "CAMK2G (Homo sapiens (Human), UniProt Q13555)", "test": "KINOMEscan", "type": "binding", "conditions": "1 uM"}, "CDK4-cyclinD1": {"target": "CDK4-cyclinD1 (Homo sapiens (Human), UniProt P11802)", "test": "KINOMEscan", "type": "binding", "conditions": "1 uM"}, "CDK7": {"target": "CDK7 (Homo sapiens (Human), UniProt P50613)", "sequence (P50613 whole entry)": "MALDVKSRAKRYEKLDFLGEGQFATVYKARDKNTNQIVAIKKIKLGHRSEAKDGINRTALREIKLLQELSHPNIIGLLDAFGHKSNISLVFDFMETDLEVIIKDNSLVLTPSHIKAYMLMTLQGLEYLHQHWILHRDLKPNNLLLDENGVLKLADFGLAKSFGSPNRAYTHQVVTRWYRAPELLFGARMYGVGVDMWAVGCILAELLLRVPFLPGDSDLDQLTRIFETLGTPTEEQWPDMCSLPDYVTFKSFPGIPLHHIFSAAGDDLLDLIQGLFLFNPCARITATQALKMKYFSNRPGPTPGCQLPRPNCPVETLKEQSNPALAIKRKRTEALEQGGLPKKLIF", "test": "KINOMEscan", "type": "binding", "conditions": "1 uM"}, "DAPK3": {"target": "DAPK3 (Homo sapiens (Human), UniProt O43293)", "test": "KINOMEscan", "type": "binding", "conditions": "1 uM"}, "DCAMKL3": {"target": "DCAMKL3 (Homo sapiens (Human), UniProt Q9C098)", "test": "KINOMEscan", "type": "binding", "conditions": "1 uM"}, "DMPK": {"target": "DMPK (Homo sapiens (Human), UniProt Q09013)", "sequence (Q09013 whole entry)": "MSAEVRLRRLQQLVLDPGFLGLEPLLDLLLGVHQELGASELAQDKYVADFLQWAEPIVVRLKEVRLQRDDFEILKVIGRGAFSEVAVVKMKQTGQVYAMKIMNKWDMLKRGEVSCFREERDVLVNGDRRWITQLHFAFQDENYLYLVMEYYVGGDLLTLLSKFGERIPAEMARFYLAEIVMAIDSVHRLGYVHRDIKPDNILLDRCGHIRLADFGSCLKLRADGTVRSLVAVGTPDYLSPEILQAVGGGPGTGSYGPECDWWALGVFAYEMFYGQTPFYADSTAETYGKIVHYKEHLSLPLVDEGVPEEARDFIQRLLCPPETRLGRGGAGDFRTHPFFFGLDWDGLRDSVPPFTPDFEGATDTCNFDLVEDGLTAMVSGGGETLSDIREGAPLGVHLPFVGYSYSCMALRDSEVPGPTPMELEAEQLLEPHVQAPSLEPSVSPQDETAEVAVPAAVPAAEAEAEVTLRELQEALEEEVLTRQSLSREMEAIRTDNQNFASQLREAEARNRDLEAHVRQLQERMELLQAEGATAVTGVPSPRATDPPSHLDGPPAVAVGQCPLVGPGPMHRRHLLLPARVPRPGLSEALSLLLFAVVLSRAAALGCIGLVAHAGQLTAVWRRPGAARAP", "test": "KINOMEscan", "type": "binding", "conditions": "1 uM"}, "EPHA1": {"target": "EPHA1 (Homo sapiens (Human), UniProt P21709)", "test": "KINOMEscan", "type": "binding", "conditions": "1 uM"}, "EPHA5": {"target": "EPHA5 (Homo sapiens (Human), UniProt P54756)", "test": "KINOMEscan", "type": "binding", "conditions": "1 uM"}, "ERK4": {"target": "ERK4 (Homo sapiens (Human), UniProt P31152)", "test": "KINOMEscan", "type": "binding", "conditions": "1 uM"}, "FLT1": {"target": "FLT1 (Homo sapiens (Human), UniProt P17948)", "test": "KINOMEscan", "type": "binding", "conditions": "1 uM"}, "FLT3": {"target": "FLT3 (Homo sapiens (Human), UniProt P36888)", "test": "KINOMEscan", "type": "binding", "conditions": "1 uM"}, "GRK1": {"target": "GRK1 (Homo sapiens (Human), UniProt Q15835)", "sequence (Q15835 whole entry)": "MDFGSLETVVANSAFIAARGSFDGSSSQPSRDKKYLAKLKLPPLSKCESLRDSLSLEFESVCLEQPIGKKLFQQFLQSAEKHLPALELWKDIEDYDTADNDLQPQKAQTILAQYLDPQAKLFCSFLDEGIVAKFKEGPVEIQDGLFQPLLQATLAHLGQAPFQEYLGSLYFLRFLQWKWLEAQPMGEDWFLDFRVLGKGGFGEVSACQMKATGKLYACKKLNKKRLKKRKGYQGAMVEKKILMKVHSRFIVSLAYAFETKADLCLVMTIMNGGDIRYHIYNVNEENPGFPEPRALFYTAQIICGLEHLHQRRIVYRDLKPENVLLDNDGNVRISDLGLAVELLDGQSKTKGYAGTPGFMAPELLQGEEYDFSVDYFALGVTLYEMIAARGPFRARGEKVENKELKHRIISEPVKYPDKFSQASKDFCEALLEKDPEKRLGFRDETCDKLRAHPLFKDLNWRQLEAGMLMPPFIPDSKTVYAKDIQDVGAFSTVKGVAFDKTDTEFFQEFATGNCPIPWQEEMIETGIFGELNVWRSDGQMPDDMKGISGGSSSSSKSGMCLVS", "test": "KINOMEscan", "type": "binding", "conditions": "1 uM"}, "HPK1": {"target": "HPK1 (Homo sapiens (Human), UniProt Q92918)", "test": "KINOMEscan", "type": "binding", "conditions": "1 uM"}, "ITK": {"target": "ITK (Homo sapiens (Human), UniProt Q08881)", "test": "KINOMEscan", "type": "binding", "conditions": "1 uM"}, "JNK1": {"target": "JNK1 (Homo sapiens (Human), UniProt P45983)", "sequence (P45983 whole entry)": "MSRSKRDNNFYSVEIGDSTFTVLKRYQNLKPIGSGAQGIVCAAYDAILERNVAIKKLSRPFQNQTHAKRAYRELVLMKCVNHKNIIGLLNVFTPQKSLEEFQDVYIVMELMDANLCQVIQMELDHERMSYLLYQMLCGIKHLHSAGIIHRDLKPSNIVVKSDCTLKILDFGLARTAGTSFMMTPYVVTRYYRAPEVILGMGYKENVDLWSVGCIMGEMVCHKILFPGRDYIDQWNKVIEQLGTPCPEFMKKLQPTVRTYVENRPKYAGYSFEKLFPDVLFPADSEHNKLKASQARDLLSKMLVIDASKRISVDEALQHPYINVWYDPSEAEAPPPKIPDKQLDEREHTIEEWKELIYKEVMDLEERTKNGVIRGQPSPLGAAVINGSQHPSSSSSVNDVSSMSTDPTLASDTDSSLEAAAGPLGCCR", "test": "KINOMEscan", "type": "binding", "conditions": "1 uM"}, "LOK": {"target": "LOK (Homo sapiens (Human), UniProt O94804)", "test": "KINOMEscan", "type": "binding", "conditions": "1 uM"}, "LRRK2": {"target": "LRRK2 (Homo sapiens (Human), UniProt Q5S007)", "test": "KINOMEscan", "type": "binding", "conditions": "1 uM"}, "MAP4K3": {"target": "MAP4K3 (Homo sapiens (Human), UniProt Q8IVH8)", "test": "KINOMEscan", "type": "binding", "conditions": "1 uM"}, "MAP4K5": {"target": "MAP4K5 (Homo sapiens (Human), UniProt Q9Y4K4)", "test": "KINOMEscan", "type": "binding", "conditions": "1 uM"}, "MARK1": {"target": "MARK1 (Homo sapiens (Human), UniProt Q9P0L2)", "test": "KINOMEscan", "type": "binding", "conditions": "1 uM"}, "MKK7": {"target": "MKK7 (Homo sapiens (Human), UniProt O14733)", "test": "KINOMEscan", "type": "binding", "conditions": "1 uM"}, "MLK1": {"target": "MLK1 (Homo sapiens (Human), UniProt P80192)", "test": "KINOMEscan", "type": "binding", "conditions": "1 uM"}, "NEK2": {"target": "NEK2 (Homo sapiens (Human), UniProt P51955)", "test": "KINOMEscan", "type": "binding", "conditions": "1 uM"}, "p38-beta": {"target": "p38-beta (Homo sapiens (Human), UniProt Q15759)", "test": "KINOMEscan", "type": "binding", "conditions": "1 uM"}, "p38-gamma": {"target": "p38-gamma (Homo sapiens (Human), UniProt P53778)", "test": "KINOMEscan", "type": "binding", "conditions": "1 uM"}, "PAK6": {"target": "PAK6 (Homo sapiens (Human), UniProt Q9NQU5)", "sequence (Q9NQU5 whole entry)": "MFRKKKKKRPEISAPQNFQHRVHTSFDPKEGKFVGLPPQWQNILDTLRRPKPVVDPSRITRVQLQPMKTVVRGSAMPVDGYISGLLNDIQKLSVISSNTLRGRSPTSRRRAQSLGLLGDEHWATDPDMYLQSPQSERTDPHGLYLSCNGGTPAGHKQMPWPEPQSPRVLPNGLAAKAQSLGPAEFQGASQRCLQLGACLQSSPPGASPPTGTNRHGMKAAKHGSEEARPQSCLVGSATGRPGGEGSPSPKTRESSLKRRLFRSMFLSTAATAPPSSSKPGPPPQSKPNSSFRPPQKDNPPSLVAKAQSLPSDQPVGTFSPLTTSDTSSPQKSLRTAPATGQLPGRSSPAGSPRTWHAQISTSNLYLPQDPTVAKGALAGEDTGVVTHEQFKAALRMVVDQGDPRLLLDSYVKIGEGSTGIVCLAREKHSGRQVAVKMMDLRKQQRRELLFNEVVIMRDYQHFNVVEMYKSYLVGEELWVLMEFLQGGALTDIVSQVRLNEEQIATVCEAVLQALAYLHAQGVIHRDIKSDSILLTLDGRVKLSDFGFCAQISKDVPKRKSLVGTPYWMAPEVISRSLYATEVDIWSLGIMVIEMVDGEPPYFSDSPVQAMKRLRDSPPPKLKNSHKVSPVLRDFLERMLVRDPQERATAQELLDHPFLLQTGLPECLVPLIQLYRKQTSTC", "test": "KINOMEscan", "type": "binding", "conditions": "1 uM"}, "PIK3CA": {"target": "PIK3CA (Homo sapiens (Human), UniProt P42336)", "test": "KINOMEscan", "type": "binding", "conditions": "1 uM"}, "PIK3CG": {"target": "PIK3CG (Homo sapiens (Human), UniProt P48736)", "test": "KINOMEscan", "type": "binding", "conditions": "1 uM"}, "PIK4CB": {"target": "PIK4CB (Homo sapiens (Human), UniProt Q9UBF8)", "sequence (Q9UBF8 whole entry)": "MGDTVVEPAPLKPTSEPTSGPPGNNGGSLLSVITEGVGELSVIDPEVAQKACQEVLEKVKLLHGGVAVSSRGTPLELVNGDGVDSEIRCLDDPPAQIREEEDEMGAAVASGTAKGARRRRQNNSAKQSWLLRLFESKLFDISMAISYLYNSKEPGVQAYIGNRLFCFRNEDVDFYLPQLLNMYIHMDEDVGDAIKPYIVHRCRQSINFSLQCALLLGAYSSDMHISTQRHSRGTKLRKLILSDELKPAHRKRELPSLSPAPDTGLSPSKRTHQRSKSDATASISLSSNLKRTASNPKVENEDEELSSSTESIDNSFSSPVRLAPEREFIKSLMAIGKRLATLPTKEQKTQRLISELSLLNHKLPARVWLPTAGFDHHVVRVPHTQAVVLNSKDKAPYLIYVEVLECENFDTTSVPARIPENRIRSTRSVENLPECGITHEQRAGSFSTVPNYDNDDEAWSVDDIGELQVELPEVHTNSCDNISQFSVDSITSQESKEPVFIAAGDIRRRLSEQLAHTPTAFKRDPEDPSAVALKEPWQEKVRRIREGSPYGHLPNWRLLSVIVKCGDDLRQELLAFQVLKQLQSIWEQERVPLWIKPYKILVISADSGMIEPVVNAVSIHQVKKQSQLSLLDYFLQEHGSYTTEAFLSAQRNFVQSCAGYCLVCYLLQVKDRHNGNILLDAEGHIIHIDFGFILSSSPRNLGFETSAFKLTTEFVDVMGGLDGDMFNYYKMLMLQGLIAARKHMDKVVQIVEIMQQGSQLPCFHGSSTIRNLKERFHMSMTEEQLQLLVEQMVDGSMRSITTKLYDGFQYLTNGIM", "test": "KINOMEscan", "type": "binding", "conditions": "1 uM"}, "PRKCD": {"target": "PRKCD (Homo sapiens (Human), UniProt Q05655)", "test": "KINOMEscan", "type": "binding", "conditions": "1 uM"}, "[3]": {"target": "RSK4 (Kin.Dom.1-N-terminal) (Homo sapiens (Human), UniProt Q9UK32)", "sequence (Q9UK32 73-330)": "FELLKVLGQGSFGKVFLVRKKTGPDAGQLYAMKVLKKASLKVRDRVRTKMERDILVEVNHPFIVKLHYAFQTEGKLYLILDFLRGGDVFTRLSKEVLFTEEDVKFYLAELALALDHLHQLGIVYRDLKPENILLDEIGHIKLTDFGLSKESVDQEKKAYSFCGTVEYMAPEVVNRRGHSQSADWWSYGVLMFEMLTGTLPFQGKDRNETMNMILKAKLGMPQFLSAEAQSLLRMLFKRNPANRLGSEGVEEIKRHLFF", "test": "KINOMEscan", "type": "binding", "conditions": "1 uM"}, "STK16": {"target": "STK16 (Homo sapiens (Human), UniProt O75716)", "test": "KINOMEscan", "type": "binding", "conditions": "1 uM"}, "TXK": {"target": "TXK (Homo sapiens (Human), UniProt P42681)", "test": "KINOMEscan", "type": "binding", "conditions": "1 uM"}, "TYRO3": {"target": "TYRO3 (Homo sapiens (Human), UniProt Q06418)", "test": "KINOMEscan", "type": "binding", "conditions": "1 uM"}, "YANK3": {"target": "YANK3 (Homo sapiens (Human), UniProt Q86UX6)", "test": "KINOMEscan", "type": "binding", "conditions": "1 uM"}}}
{"smiles": "COc1ccc(N2C(=O)N(c3c(C)cccc3C)Cc3cnc(Nc4ccc(N5CCN(C)CC5)cc4)nc32)c(OC)c1", "note": "[HG-11-136-01]", "values": [{"measurement": "qAC50", "setting": "[1]", "result": 171, "unit": "nM"}, {"measurement": "Data Mode", "setting": "[1]; curve direction of qAC50 data", "result": "decreasing"}, {"measurement": "KINOMEscan ABL1 (M351T)-phosphorylated", "setting": "[2]", "result": 0.55}, {"measurement": "KINOMEscan AKT3", "setting": "AKT3", "result": 100}, {"measurement": "KINOMEscan AMPK-alpha2", "setting": "AMPK-alpha2", "result": 30}, {"measurement": "KINOMEscan AURKB", "setting": "AURKB", "result": 26}, {"measurement": "KINOMEscan BMPR1A", "setting": "BMPR1A", "result": 4.6}, {"measurement": "KINOMEscan BRAF (V600E)", "setting": "BRAF (V600E)", "result": 13}, {"measurement": "KINOMEscan CAMK2G", "setting": "CAMK2G", "result": 100}, {"measurement": "KINOMEscan CDK4-cyclinD1", "setting": "CDK4-cyclinD1", "result": 9}, {"measurement": "KINOMEscan CDK7", "setting": "CDK7", "result": 60}, {"measurement": "KINOMEscan DAPK3", "setting": "DAPK3", "result": 63}, {"measurement": "KINOMEscan DCAMKL3", "setting": "DCAMKL3", "result": 77}, {"measurement": "KINOMEscan DMPK", "setting": "DMPK", "result": 88}, {"measurement": "KINOMEscan EPHA1", "setting": "EPHA1", "result": 0}, {"measurement": "KINOMEscan EPHA5", "setting": "EPHA5", "result": 0.6}, {"measurement": "KINOMEscan ERK4", "setting": "ERK4", "result": 95}, {"measurement": "KINOMEscan FLT1", "setting": "FLT1", "result": 5.2}, {"measurement": "KINOMEscan FLT3", "setting": "FLT3", "result": 34}, {"measurement": "KINOMEscan GRK1", "setting": "GRK1", "result": 77}, {"measurement": "KINOMEscan HPK1", "setting": "HPK1", "result": 0.95}, {"measurement": "KINOMEscan ITK", "setting": "ITK", "result": 66}, {"measurement": "KINOMEscan JNK1", "setting": "JNK1", "result": 23}, {"measurement": "KINOMEscan LOK", "setting": "LOK", "result": 0}, {"measurement": "KINOMEscan LRRK2", "setting": "LRRK2", "result": 21}, {"measurement": "KINOMEscan MAP4K3", "setting": "MAP4K3", "result": 1.8}, {"measurement": "KINOMEscan MAP4K5", "setting": "MAP4K5", "result": 0.3}, {"measurement": "KINOMEscan MARK1", "setting": "MARK1", "result": 5.1}, {"measurement": "KINOMEscan MKK7", "setting": "MKK7", "result": 80}, {"measurement": "KINOMEscan MLK1", "setting": "MLK1", "result": 6}, {"measurement": "KINOMEscan NEK2", "setting": "NEK2", "result": 75}, {"measurement": "KINOMEscan p38-beta", "setting": "p38-beta", "result": 3.1}, {"measurement": "KINOMEscan p38-gamma", "setting": "p38-gamma", "result": 91}, {"measurement": "KINOMEscan PAK6", "setting": "PAK6", "result": 37}, {"measurement": "KINOMEscan PIK3CA", "setting": "PIK3CA", "result": 100}, {"measurement": "KINOMEscan PIK3CG", "setting": "PIK3CG", "result": 77}, {"measurement": "KINOMEscan PIK4CB", "setting": "PIK4CB", "result": 63}, {"measurement": "KINOMEscan PRKCD", "setting": "PRKCD", "result": 94}, {"measurement": "KINOMEscan RSK4 (Kin.Dom.1-N-terminal)", "setting": "[3]", "result": 39}, {"measurement": "KINOMEscan STK16", "setting": "STK16", "result": 5.6}, {"measurement": "KINOMEscan TXK", "setting": "TXK", "result": 0.25}, {"measurement": "KINOMEscan TYRO3", "setting": "TYRO3", "result": 1.6}, {"measurement": "KINOMEscan YANK3", "setting": "YANK3", "result": 32}]}
